{"source": "paper PMC9311615", "about": "(Antibiotics, 2022)", "key": {"[1]": {"experiment": "Population pharmacokinetic model (NONMEM), one-compartment first-order elimination", "description": "Basic model building was performed using the building subset (n = 94), through PsN-controlled NONMEM iterative runs. One- and two- compartment models with first-order elimination, parametrized in terms of drug Cl and Vd, were evaluated. Residual error was described using additive, proportional or mixed error models. Models were compared based on the following aspects: (1) minimization of the OFV; (2) standard errors and confidence intervals of parameter estimates, calculated for each model through NONMEM correlation matrices and PsN-controlled bootstrap method; (3) goodness-of-fit plots generated with Xpose4 [24]; (4) plausibility of parameter estimates, according to the literature.\nThe preliminary covariate screening was performed through several Xpose4 functions, which are as follows: (1) graphic analysis of covariate-covariate plots to exclude redundancies, (2) graphic analysis of parameters-covariate plots, (3) generalized additive model (GAM) to search for the covariates that minimized the most of Akaike’s information criterion (AIC) value. Covariate model building was based on the least absolute shrinkage and selection operator method, which is automated within the “lasso” Perl command [17]. Further insights on covariates effect were collected with the same methods, after the second patient enrollment round.\nThe final model was validated both with internal and external approaches. The former one was performed through the following steps: (1) a visual predictive check (VPC), namely a concentration-time plot, where the mean and 5th and 95th percentile of real data are superimposed to the respective descriptive measures of simulated concentrations; (2) a numeric predictive check, which assesses abnormal trends in the DV/iPRED ratio for different statistical confidence intervals; (3) a bootstrap of the model, which calculates the bias between final parameters estimates and the means estimated through 1500 further runs of the same model, based on a random resampling from the same dataset; (4) calculation of η- and ε-shrinkage, as described in the following equations:(3) ηshrink=1−stdev(ηest)/ω (4) εshrink=1−stdev(IWRES)"}, "[2]": {"test_system": "E. faecium", "conditions": "Monte-Carlo on Dvorchik's pop-PK model, cited from earlier work"}, "[3]": {"experiment": "Daptomycin plasma concentrations, routine TDM, HPLC-UV", "conditions": "for Daptomycin plasma concentration 1 h, mean ± SD: peak; for Daptomycin plasma concentration 23.5 h, mean ± SD: trough", "quoted_text": "This work was conducted in the framework of DAPTOLIN, an observational retrospective study approved by the Ethics Committee of the Azienda OspedalieroUniversitaria Pisana (AOUP protocol number 55945). […] Patients with incomplete medical records were excluded. […] After the first round, in which 134 patients were included, the dataset was split in 2 subsets through an iterative stratified sampling procedure [21]. The covariates considered for subset balancing were sex, weight, CrCl (calculated through the Cockroft-Gault equation), serum albumin and serum total protein concentration. During the second round, 22 further patients were included, to reach a total of 156 included patients.\nVenous blood samples were collected in heparinized tubes and centrifuged immediately after. The extracted plasma was then stored at −20 °C until subsequent analysis.\nThe quantification technique was based on the novel HPLC-UV method developed and described by Luci and colleagues [22]. Briefly, plasma samples were firstly purified using a 95:5 v/v mixture of acetonitrile and 85% H3PO4, to induce protein precipitation. Samples were then vortexed for 30 s and centrifuged at 7700 rpm for 15 min. […] The mobile phase, composed of a 54:46 v/v mixture of 20 mM KH2PO4 and acetonitrile at pH 3.2, was pumped in the HPLC system at a 1 mL/min flowrate, while the chromatographic column temperature was kept at 35 °C. These conditions allowed the optimal separation of analytes in a 10 min-long chromatographic run."}, "[4]": {"conditions": "daily dose 6–7 mg/kg, n = 96 patients"}, "[5]": {"conditions": "daily dose 8–9 mg/kg, n = 32 patients"}, "[6]": {"conditions": "daily dose 10–11 mg/kg, n = 8 patients"}}, "note": "Where two headings read alike, the source gives them in different places."}
{"smiles": "CCCCCCCCCC(=O)N[C@@H](Cc1c[nH]c2ccccc12)C(=O)N[C@H](CC(N)=O)C(=O)N[C@@H](CC(=O)O)C(=O)N[C@@H]1C(=O)NCC(=O)N[C@@H](CCCN)C(=O)N[C@@H](CC(=O)O)C(=O)N[C@H](C)C(=O)N[C@@H](CC(=O)O)C(=O)NCC(=O)N[C@H](CO)C(=O)N[C@@H]([C@H](C)CC(=O)O)C(=O)N[C@@H](CC(=O)c2ccccc2N)C(=O)O[C@@H]1C", "note": "[Daptomycin]", "values": [{"measurement": "Cl (θ1), bootstrap mean", "setting": "[1]; 1500-samples bootstrap", "result": 0.631, "unit": "L/h"}, {"measurement": "V (θ2), bootstrap mean", "setting": "[1]; 1500-samples bootstrap", "result": 10.935, "unit": "L"}, {"measurement": "kCrCl (θ5), bootstrap mean", "setting": "[1]; 1500-samples bootstrap", "result": 0.128}, {"measurement": "kSex (θ6), bootstrap mean", "setting": "[1]; 1500-samples bootstrap", "result": "−2.484"}, {"measurement": "Vd", "setting": "[1]; human, in vivo", "result": 10.9, "unit": "L"}, {"measurement": "clearance", "setting": "[1]; human, in vivo", "result": 10.6, "unit": "mL/min"}, {"measurement": "CFR against E. faecium reported by Turnidge et al.", "setting": "[2]; 8 mg/kg × MIC 2", "result": 80.4, "unit": "%"}, {"measurement": "CFR against E. faecium reported by Turnidge et al.", "setting": "[2]; 10 mg/kg × MIC 2", "result": 92.9, "unit": "%"}, {"measurement": "Daptomycin plasma concentration 1 h, mean ± SD", "setting": "[3]; daily dose 12 mg/kg, n = 4 patients", "result": "80.0 ± 25.7"}, {"measurement": "Daptomycin plasma concentration 23.5 h, mean ± SD", "setting": "[3]; daily dose 4–5 mg/kg, n = 15 patients", "result": "11.4 ± 8.7"}, {"measurement": "Daptomycin plasma concentration 1 h, mean ± SD", "setting": "[3]; [4]", "result": "59.3 ± 18.0"}, {"measurement": "Daptomycin plasma concentration 23.5 h, mean ± SD", "setting": "[3]; [4]", "result": "17.8 ± 11.0"}, {"measurement": "Daptomycin plasma concentration 1 h, mean ± SD", "setting": "[3]; [5]", "result": "74.4 ± 51.3"}, {"measurement": "Daptomycin plasma concentration 23.5 h, mean ± SD", "setting": "[3]; [5]", "result": "15.5 ± 10.7"}, {"measurement": "Daptomycin plasma concentration 1 h, mean ± SD", "setting": "[3]; [6]", "result": "69.8 ± 21.7"}, {"measurement": "Daptomycin plasma concentration 23.5 h, mean ± SD", "setting": "[3]; [6]", "result": "25.4 ± 14.1"}]}
